Data as given in ChEMBL document CHEMBL1201862, “PubChem BioAssay data set” (2004).
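Exposure lasted 48 hours, with cells grown in 96-well plates and compounds tested at five concentrations. Here, GI50 denotes the concentration required for 50% inhibition of growth.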 Activity calls are given as the source filed them. No stated cut-off is given here; in the data, active = GI50 up to about 1.1 µM and inactive = higher.

Legend:
Experiment in all cases: NCI tumour cell line growth inhibition, 48 h
ACHN = test system: ACHN
Malme-3M = test system: Malme-3M
DMS-114 = test system: DMS-114
UACC-257 = test system: UACC-257
NCI-H23 = test system: NCI-H23
786-0 = test system: 786-0
UACC-62 = test system: UACC-62
M14 = test system: M14
NCI-H226 = test system: NCI-H226
OVCAR-4 = test system: OVCAR-4
KM12 = test system: KM12
EKVX = test system: EKVX
CAKI-1 = test system: CAKI-1
HOP-92 = test system: HOP-92
SNB-75 = test system: SNB-75
SK-MEL-2 = test system: SK-MEL-2
IGROV-1 = test system: IGROV-1
A549 = test system: A549
HCC 2998 = test system: HCC 2998
OVCAR-8 = test system: OVCAR-8
MOLT-4 = test system: MOLT-4
NCI-H522 = test system: NCI-H522
SR = test system: SR
U-251 = test system: U-251
TK-10 = test system: TK-10
SF-539 = test system: SF-539
A498 = test system: A498
NCI-H460 = test system: NCI-H460
SN12C = test system: SN12C
HOP-18 = test system: HOP-18
HT-29 = test system: HT-29
HCT-15 = test system: HCT-15
COLO 205 = test system: COLO 205
UO-31 = test system: UO-31
SK-MEL-5 = test system: SK-MEL-5
SF-295 = test system: SF-295
CCRF-CEM = test system: CCRF-CEM
LOX IMVI = test system: LOX IMVI
HL-60 = test system: HL-60
HOP-62 = test system: HOP-62
SK-OV-3 = test system: SK-OV-3
SNB-19 = test system: SNB-19
RPMI-8226 = test system: RPMI-8226
K562 = test system: K562
RXF 631 = test system: RXF 631
KM-20L2 = test system: KM-20L2
DMS-273 = test system: DMS-273
OVCAR-3 = test system: OVCAR-3
SK-MEL-28 = test system: SK-MEL-28
HCT-116 = test system: HCT-116
DLD-1 = test system: DLD-1
SNB-78 = test system: SNB-78
SW-620 = test system: SW-620
SF-268 = test system: SF-268
OVCAR-5 = test system: OVCAR-5

COC(=O)C1(O)CC(=O)CCC1c1ccc(OC)cc1 (stereo not given)
GI50 (ACHN): > 100 µM (inactive)
GI50 (Malme-3M): > 100 µM (inactive)
GI50 (DMS-114): > 100 µM (inactive)
GI50 (UACC-257): > 100 µM (inactive)
GI50 (NCI-H23): > 100 µM (inactive)
GI50 (786-0): > 100 µM (inactive)
GI50 (UACC-62): > 100 µM (inactive)
GI50 (M14): > 100 µM (inactive)
GI50 (NCI-H226): > 100 µM (inactive)
GI50 (OVCAR-4): > 100 µM (inactive)
GI50 (KM12): > 100 µM (inactive)
GI50 (EKVX): > 100 µM (inactive)
GI50 (CAKI-1): > 100 µM (inactive)
GI50 (HOP-92): > 100 µM (inactive)
GI50 (SNB-75): > 100 µM (inactive)
GI50 (SK-MEL-2): > 100 µM (inactive)
GI50 (IGROV-1): > 100 µM (inactive)
GI50 (A549): > 100 µM (inactive)
GI50 (HCC 2998): > 100 µM (inactive)
GI50 (OVCAR-8): > 100 µM (inactive)
GI50 (MOLT-4): > 100 µM (inactive)
GI50 (NCI-H522): > 100 µM (inactive)
GI50 (SR): > 100 µM (inactive)
GI50 (U-251): > 100 µM (inactive)
GI50 (TK-10): > 100 µM (inactive)
GI50 (SF-539): > 100 µM (inactive)
GI50 (A498): > 100 µM (inactive)
GI50 (NCI-H460): > 100 µM (inactive)
GI50 (SN12C): > 100 µM (inactive)
GI50 (HOP-18): > 100 µM (inactive)
GI50 (HT-29): > 100 µM (inactive)
GI50 (HCT-15): > 100 µM
GI50 (COLO 205): > 100 µM (inactive)
GI50 (UO-31): > 100 µM (inactive)
GI50 (SK-MEL-5): > 100 µM (inactive)
GI50 (SF-295): > 100 µM (inactive)
GI50 (CCRF-CEM): > 100 µM (inactive)
GI50 (LOX IMVI): > 100 µM (inactive)
GI50 (HL-60): > 100 µM (inactive)
GI50 (HOP-62): > 100 µM (inactive)
GI50 (SK-OV-3): > 100 µM (inactive)
GI50 (SNB-19): > 100 µM (inactive)
GI50 (RPMI-8226): > 100 µM (inactive)
GI50 (K562): > 100 µM (inactive)
GI50 (RXF 631): > 100 µM (inactive)
GI50 (KM-20L2): > 100 µM (inactive)
GI50 (DMS-273): > 100 µM (inactive)
GI50 (OVCAR-3): > 100 µM (inactive)
GI50 (SK-MEL-28): > 100 µM (inactive)
GI50 (HCT-116): > 100 µM (inactive)
GI50 (DLD-1): > 100 µM (inactive)
GI50 (SNB-78): > 100 µM (inactive)
GI50 (SW-620): > 100 µM (inactive)
GI50 (SF-268): > 100 µM (inactive)
GI50 (OVCAR-5): > 100 µM (inactive)
